In the NIST ThermoML archive (doi:10.1007/s10765-010-0768-y):

Assay: xn = mol fraction of the nth substance listed
Settings: 101 kPa, Liquid, Pycnometric method

C=CC(=O)OCCCC [butyl 2-propenoate] + Cc1ccccc1
mass density [kg/m3]
Settings	288.15 K	293.15 K	298.15 K	303.15 K	308.15 K	313.15 K	318.15 K
x1 = 0.0704	875.4	870.63	865.86	861.09	856.32	851.55	846.79
x1 = 0.1402	878.72	873.92	869.12	864.32	859.52	854.72	849.92
x1 = 0.2054	881.63	876.8	871.97	867.14	862.31	857.48	852.65
x1 = 0.2799	884.72	879.86	875	870.15	865.31	860.47	855.63
x1 = 0.3604	887.81	882.94	878.07	873.2	868.34	863.48	858.62
x1 = 0.4338	890.4	885.52	880.64	875.77	870.9	866.03	861.16
x1 = 0.5098	892.88	888	883.12	878.24	873.36	868.48	863.6
x1 = 0.5836	895.08	890.19	885.31	880.43	875.55	870.67	865.79
x1 = 0.6584	897.1	892.22	887.34	882.46	877.58	872.7	867.82
x1 = 0.7198	898.6	893.73	888.86	883.99	879.12	874.25	869.38
x1 = 0.7912	900.18	895.32	890.46	885.6	880.75	875.9	871.05
x1 = 0.8578	901.48	896.64	891.8	886.96	882.12	877.28	872.44
x1 = 0.9324	902.74	897.93	893.12	888.31	883.5	878.69	873.88
x1 = 1	903.6	898.85	894.1	889.35	884.6	879.85	875.1

C=CC(=O)OCCCC [butyl 2-propenoate] + Cc1ccccc1C
mass density [kg/m3]
Settings	288.15 K	293.15 K	298.15 K	303.15 K	308.15 K	313.15 K	318.15 K
x1 = 0.0685	885.81	881.5	877.19	872.88	868.57	864.26	859.95
x1 = 0.1306	887.32	882.97	878.62	874.27	869.92	865.57	861.22
x1 = 0.2018	889	884.6	880.2	875.8	871.41	867.02	862.63
x1 = 0.2738	890.63	886.19	881.75	877.31	872.87	868.44	864.01
x1 = 0.3654	892.61	888.12	883.63	879.14	874.65	870.17	865.69
x1 = 0.4331	894.01	889.49	884.97	880.45	875.93	871.41	866.89
x1 = 0.5072	895.49	890.93	886.37	881.81	877.25	872.7	868.14
x1 = 0.589	897.05	892.45	887.85	883.25	878.65	874.06	869.47
x1 = 0.6522	898.2	893.57	888.94	884.31	879.68	875.06	870.44
x1 = 0.7283	899.51	894.85	890.19	885.53	880.87	876.21	871.55
x1 = 0.7924	900.56	895.87	891.18	886.49	881.8	877.12	872.44
x1 = 0.8587	901.6	896.88	892.16	887.45	882.74	878.03	873.32
x1 = 0.9298	902.64	897.9	893.16	888.42	883.69	878.96	874.23
x1 = 1	903.6	898.85	894.1	889.35	884.6	879.85	875.1

C=CC(=O)OCCCC [butyl 2-propenoate] + c1ccccc1
mass density [kg/m3]
Settings	288.15 K	293.15 K	298.15 K	303.15 K	308.15 K	313.15 K	318.15 K
x1 = 0.0722	887.23	881.89	876.56	871.23	865.9	860.57	855.24
x1 = 0.142	889.79	884.48	879.17	873.86	868.56	863.26	857.96
x1 = 0.2062	891.94	886.65	881.36	876.08	870.8	865.52	860.24
x1 = 0.2794	894.12	888.87	883.62	878.37	873.12	867.87	862.62
x1 = 0.3586	896.24	891.02	885.8	880.58	875.36	870.14	864.92
x1 = 0.4363	898.02	892.83	887.64	882.46	877.28	872.1	866.92
x1 = 0.5074	899.4	894.25	889.11	883.97	878.83	873.69	868.55
x1 = 0.5818	900.63	895.53	890.43	885.33	880.23	875.13	870.03
x1 = 0.6423	901.47	896.4	891.33	886.26	881.2	876.14	871.08
x1 = 0.7226	902.36	897.34	892.32	887.3	882.29	877.28	872.27
x1 = 0.7902	902.91	897.94	892.97	888	883.03	878.07	873.11
x1 = 0.8563	903.29	898.38	893.47	888.56	883.65	878.75	873.85
x1 = 0.9305	903.53	898.69	893.85	889.01	884.18	879.35	874.52
x1 = 1	903.6	898.85	894.1	889.35	884.6	879.85	875.1
